Legend:
eyes of rabbits = assay: Safety of topically applied PS in rabbits (toxicity, intraocular pressure, corneal melt, slit lamp); type: in vivo, rabbit
Text: The Safety of Topically Applied PS.

[1] = test system: chorioallantoic membrane (CAM); assay: Chorioallantoic membrane (CAM) neovascularization assay; type: in vivo, chicken; details: day 4; for # of new vessels: Mean ± SEM
Protocol: Second, the effect of PS on new vessel formation (neovascularization) was evaluated using the chorioallantoic membrane (CAM) assay. In this assay, fertilized white chicken eggs (SPF Premium, Charles River Laboratory, North Franklin, Conn.) were incubated at 37° C. in 70% humidity for 3 days. The embryos were then incubated ex vivo in a sterile Petri dish for 7 days. Gelatin sponges adsorbed with or without VEGF plus PS or water (vehicle control) were implanted on the CAM surface and the neovasculature was counted on day 4 post implantation under a dissecting microscope.

[2] = Ocular biodistribution of PS after topical eye drops in New Zealand white rabbits (HPLC); type: in vivo, rabbit
Protocol: Results: The above PS formulation was administered topically as eye drops to the eyes of New Zealand white rabbits. The levels of PS in ocular tissues 1 h and 3 h later were determined by HPLC. The Table below summarizes the findings:
Results: The above PS formulation was administered topically as eye drops to the eyes of New Zealand white rabbits. The levels of PS in ocular tissues at 2 h later were determined by HPLC. The table below summarizes the findings.
Results: PS in this formulation was administered topically to the eyes of New Zealand white rabbits and its biodistribution was determined as above. The Table below summarizes the findings.
Results: PS in this formulation was administered topically as eye drops to the eyes of New Zealand white rabbits. The biodistribution of PS in ocular tissues at 3 h and 6 h was determined by HPLC. The Table below summarizes the findings.
Biodistribution of PS after topical administration: PS formulated in nanoparticles as above was administered topically as eye drops to New Zealand white rabbits. The biodistribution of PS in ocular tissues at the indicated time points post administration was determined by HPLC. The Table below summarizes the findings.
Biodistribution of PS after topical administration: PS in the formulations was administered topically as eye drops to the eyes of New Zealand white rabbits. The levels of PS in ocular tissues at 0.5 h, 1 h and 3 h were determined by HPLC. The Table below summarizes the findings.
To assess the contribution of the foregoing formulations to the PK/biodistribution of PS in the ocular tissues, a solution of PS in pure propylene glycol (PG) was studied. PG is well tolerated by the eye. A 3.5% PS solution (in PG) as eye drops was administered topically to the eyes of New Zealand white rabbits and its 1-hour biodistribution was determined by HPLC. The Table summarizes the findings.

[3] = rabbits, 2 weeks of daily PS 3.6% eye drops
[4] = weekly during a 1-month application of PS
[5] = 0.5 h, topical, 0.4% gellan gum in-situ gel, 2.4-3% PS
[6] = 1 h, topical eye drops, 3.5% PS/16% Vitamin E TPGS/mannitol/boric acid
[7] = 1 h, topical, 0.4% gellan gum in-situ gel, 2.4-3% PS
[8] = 1 h, topical, sodium alginate/Tween 80 in-situ gel, 3% PS
[9] = 2 h, topical, 0.5% gellan gum in-situ gel, 2.4~3% PS
[10] = 3 h, topical eye drops, 3.5% PS/16% Vitamin E TPGS/mannitol/boric acid
[11] = 3 h, topical, 0.4% gellan gum in-situ gel, 2.4-3% PS
[12] = 3 h, topical, Poloxamer 407 in-situ gel, 5.4% PS
[13] = 3 h, topical, sodium alginate/Tween 80 in-situ gel, 3% PS
[14] = 5 h, topical, 0.4% gellan gum in-situ gel, 2.4-3% PS
[15] = 5 h, topical, sodium alginate/Tween 80 in-situ gel, 3% PS
[16] = 8 h, topical, 0.4% gellan gum in-situ gel, 2.4-3% PS

CCOP(=O)(OCC)OCCCCOC(=O)CC1=C(C)/C(=C/c2ccc([S+](C)[O-])cc2)c2ccc(F)cc21 (centres unmarked) [PS, phosphosulindac]
Intraocular pressure (Tonopen) (eyes of rabbits; 1-month application of PS): remained normal | signs of uveitis (eyes of rabbits; 1-month application of PS): No animal developed signs of uveitis | tolerability of ocular application (eyes of rabbits; rabbits): very well tolerated | keratitis or corneal melting (ophthalmological examination) (eyes of rabbits; rabbits treated for up to 3 weeks): no evidence of keratitis or corneal melting | intraocular pressure (eyes of rabbits; [3]): no changes in intraocular pressure | topical or systemic toxicity (eyes of rabbits; [3]): no evidence of topical or systemic toxicity | slit lamp examination: conjunctiva (eyes of rabbits; [4]): no evidence of follicular/papillary response or injection of the conjunctiva | slit lamp examination: corneal abnormalities (staining defects, vascularization, opacification, epithelial defects, stromal thinning, melts) (eyes of rabbits; [4]): nor were there signs of corneal abnormalities | inhibition at 16 µM ([1]; Gallus gallus, 96 h, VEGF + PS 16 μM): 26% | inhibition at 50 µM ([1]; Gallus gallus, 96 h, VEGF + PS 50 μM): 34% | neovascularization % inhibition ([1]; PS 50 μM without VEGF): 29 (P < 0.016) % | # of new vessels ([1]; PS 50 μM without VEGF): 41 ± 3.2 | # of new vessels ([1]; VEGF + PS 16 μM): 46.4 ± 1.5 | # of new vessels ([1]; VEGF + PS 50 μM): 41.4 ± 1.0 | PS in Aqueous humor [2, 5]: 0.6 µM | PS in Conjunctiva [2, 5]: 37.7 µM | PS in Cornea [2, 5]: 24.3 µM | PS in Aqueous humor [2, 6]: 2.3 µM | PS in Choroid [2, 6]: 3.2 µM | PS in Conjunctiva [2, 6]: 9.3 µM | PS in Cornea [2, 6]: 6.9 µM | PS in Iris [2, 6]: 0.7 µM | PS in Lacrimal gland [2, 6]: 0.1 µM | PS in Lens [2, 6]: 1.8 µM | PS in Retina [2, 6]: 2.7 µM | PS in Sclera [2, 6]: 2.3 µM | PS in Vitreous body [2, 6]: 3.6 µM | PS in Aqueous humor [2, 7]: 0.4 µM | PS in Conjunctiva [2, 7]: 20.8 µM | PS in Cornea [2, 7]: 50.8 µM | PS in Aqueous humor [2, 8]: 0.4 µM | PS in Conjunctiva [2, 8]: 4.9 µM | PS in Cornea [2, 8]: 17.8 µM | PS in Aqueous humor [2, 9]: 1.2 µM | PS in Conjunctiva [2, 9]: 24.1 µM | PS in Cornea [2, 9]: 72.0 µM | PS in Aqueous humor [2, 10]: 0.1 µM | PS in Choroid [2, 10]: 0.2 µM | PS in Conjunctiva [2, 10]: 0.5 µM | PS in Cornea [2, 10]: 0.8 µM | PS in Iris [2, 10]: 0.9 µM | PS in Lacrimal gland [2, 10]: 0.5 µM | PS in Lens [2, 10]: 0.1 µM | PS in Retina [2, 10]: 0.2 µM | PS in Sclera [2, 10]: 0.2 µM | PS in Conjunctiva [2, 11]: 0.7 µM | PS in Cornea [2, 11]: 1.5 µM | PS in Choroid [2, 12]: 0.9 µM | PS in Cornea [2, 12]: 45.1 µM | PS in Aqueous humor [2, 13]: 0.3 µM | PS in Conjunctiva [2, 13]: 2.1 µM | PS in Cornea [2, 13]: 5.0 µM | PS in Conjunctiva [2, 14]: 1.1 µM | PS in Cornea [2, 14]: 1.1 µM | PS in Conjunctiva [2, 15]: 2.3 µM | PS in Cornea [2, 15]: 1.0 µM | PS in Conjunctiva [2, 16]: 0.7 µM | PS in Cornea [2, 16]: 1.6 µM | PS in Conjunctiva ([2]; 8 h, topical, sodium alginate/Tween 80 in-situ gel, 3% PS): 1.3 µM

Reference: patent US11510931B2, “Compositions and methods for treating ophthalmic conditions” (MEDICON PHARMACEUTICALS, INC., priority 2016, dated 2022)
